“And” between values parts separate entries of the source, which are not always exact repeats. Equal values may be shown once.
Legend:
[1] = for molar entropy: 101.33 kPa, Vacuum adiabatic calorimetry; for Triple point temperature: Adiabatic calorimetry
[2] = molar heat capacity at constant pressure; details: 101.33 kPa, Vacuum adiabatic calorimetry

[Ho+3].[Ho+3].[Se-2].[Se-2].[Se-2] [holmium selenide (Ho2Se3)]
Details	molar entropy, [1] [J/K/mol]	molar heat capacity at constant pressure, [2]
4.75 K, Crystal 3	–	4.433 J/K/mol
5 K, Crystal 3	1.64	5.229 J/K/mol
5.01 K, Crystal 3	–	4.889 J/K/mol
5.32 K, Crystal 3	–	7.582 J/K/mol
6.03 K, Crystal 2	3.189	12 J/K/mol and 11.86 J/K/mol
6.03 K, Crystal 3	3.189	11.86 J/K/mol and 12 J/K/mol
7 K, Crystal 2	–	10.5 J/K/mol
7.23 K, Crystal 2	–	9.963 J/K/mol
8 K, Crystal 2	–	6.9 J/K/mol
8.62 K, Crystal 2	–	9.268 J/K/mol
9 K, Crystal 2	–	7.3 J/K/mol
10 K, Crystal 2	8.227	8.4 J/K/mol
10.31 K, Crystal 2	–	9.187 J/K/mol
10.68 K, Crystal 2	–	9.794 J/K/mol
11.33 K, Crystal 2	–	10.14 J/K/mol
12.42 K, Crystal 2	–	11.01 J/K/mol
13.07 K, Crystal 2	–	11.54 J/K/mol
14.47 K, Crystal 2	–	12.75 J/K/mol
15 K, Crystal 2	12.67	13.14 J/K/mol
16.86 K, Crystal 2	–	14.62 J/K/mol
20 K, Crystal 2	17.04	17.39 J/K/mol
20.03 K, Crystal 2	–	17.51 J/K/mol
22.71 K, Crystal 2	–	19.72 J/K/mol
25 K, Crystal 2	21.4	22.07 J/K/mol
25.13 K, Crystal 2	–	22.18 J/K/mol
28.04 K, Crystal 2	–	25.54 J/K/mol
30 K, Crystal 2	25.92	27.86 J/K/mol
31.2 K, Crystal 2	–	29.55 J/K/mol
34.35 K, Crystal 2	–	34.03 J/K/mol
35 K, Crystal 2	30.74	34.94 J/K/mol
37.49 K, Crystal 2	–	38.79 J/K/mol
40 K, Crystal 2	35.91	42.81 J/K/mol
40.37 K, Crystal 2	–	43.37 J/K/mol
43.16 K, Crystal 2	–	48 J/K/mol
45 K, Crystal 2	41.42	50.85 J/K/mol
46.66 K, Crystal 2	–	53.47 J/K/mol
50 K, Crystal 2	47.18	58.65 J/K/mol
51.18 K, Crystal 2	–	60.48 J/K/mol
55.76 K, Crystal 2	–	66.98 J/K/mol
59.76 K, Crystal 2	–	72.46 J/K/mol
60 K, Crystal 2	59.16	72.86 J/K/mol
63.99 K, Crystal 2	–	77.76 J/K/mol
68.39 K, Crystal 2	–	82.55 J/K/mol
70 K, Crystal 2	71.3	84.33 J/K/mol
72.45 K, Crystal 2	–	86.7 J/K/mol
76.57 K, Crystal 2	–	90.48 J/K/mol
80 K, Crystal 2	83.16	93.16 J/K/mol
80.18 K, Crystal 2	–	93.23 J/K/mol
85.83 K, Crystal 2	–	97.43 J/K/mol
90 K, Crystal 2	94.54	99.99 J/K/mol
91.8 K, Crystal 2	–	101 J/K/mol
97.35 K, Crystal 2	–	103.9 J/K/mol
100 K, Crystal 2	105.4	105.2 J/K/mol
102.86 K, Crystal 2	–	106.2 J/K/mol
108.72 K, Crystal 2	–	108.5 J/K/mol
110 K, Crystal 2	115.6	109.2 J/K/mol
114.93 K, Crystal 2	–	110.9 J/K/mol
120 K, Crystal 2	125.2	112.4 J/K/mol
121.18 K, Crystal 2	–	112.4 J/K/mol
127.91 K, Crystal 2	–	114.2 J/K/mol
130 K, Crystal 2	134.3	114.8 J/K/mol
135.11 K, Crystal 2	–	115.7 J/K/mol
140 K, Crystal 2	142.9	116.5 J/K/mol
142.05 K, Crystal 2	–	116.8 J/K/mol
148.79 K, Crystal 2	–	117.9 J/K/mol
150 K, Crystal 2	151	117.9 J/K/mol
155.35 K, Crystal 2	–	118.6 J/K/mol
160 K, Crystal 2	158.6	119 J/K/mol
161.76 K, Crystal 2	–	119.2 J/K/mol
168.04 K, Crystal 2	–	119.9 J/K/mol
170 K, Crystal 2	165.9	119.9 J/K/mol
174.8 K, Crystal 2	–	120.3 J/K/mol
180 K, Crystal 2	172.7	120.8 J/K/mol
182.04 K, Crystal 2	–	120.9 J/K/mol
189.15 K, Crystal 2	–	121.4 J/K/mol
190 K, Crystal 2	179.3	121.5 J/K/mol
196.14 K, Crystal 2	–	122.1 J/K/mol
200 K, Crystal 2	185.5	122.1 J/K/mol
203.04 K, Crystal 2	–	122.2 J/K/mol
209.83 K, Crystal 2	–	122.9 J/K/mol
210 K, Crystal 2	191.5	122.8 J/K/mol
216.54 K, Crystal 2	–	123.2 J/K/mol
217.14 K, Crystal 2	–	123.4 J/K/mol
220 K, Crystal 2	197.3	123.6 J/K/mol
220.38 K, Crystal 2	–	123.3 J/K/mol
222.96 K, Crystal 2	–	123.9 J/K/mol
223.16 K, Crystal 2	–	124 J/K/mol
224.88 K, Crystal 2	–	124.3 J/K/mol
226.8 K, Crystal 2	–	124.9 J/K/mol
228.4 K, Crystal 1	201.9	125 J/K/mol and 125.2 J/K/mol
228.4 K, Crystal 2	201.9	125.2 J/K/mol and 125 J/K/mol
229.68 K, Crystal 1	–	124.4 J/K/mol
229.7 K, Crystal 1	–	124.4 J/K/mol
230 K, Crystal 1	202.8	124.3 J/K/mol
230.95 K, Crystal 1	–	123.6 J/K/mol
232.22 K, Crystal 1	–	122.9 J/K/mol
233.8 K, Crystal 1	–	123.6 J/K/mol
235.69 K, Crystal 1	–	122.7 J/K/mol
236.16 K, Crystal 1	–	123.1 J/K/mol
238.19 K, Crystal 1	–	123.1 J/K/mol
240 K, Crystal 1	208	123.1 J/K/mol
241.31 K, Crystal 1	–	123.4 J/K/mol
242.82 K, Crystal 1	–	122.7 J/K/mol
244.42 K, Crystal 1	–	123.3 J/K/mol
249.67 K, Crystal 1	–	123.4 J/K/mol
250 K, Crystal 1	213	123.4 J/K/mol
256.45 K, Crystal 1	–	123.6 J/K/mol
260 K, Crystal 1	217.9	123.6 J/K/mol
263.41 K, Crystal 1	–	123.5 J/K/mol
270 K, Crystal 1	222.6	123.7 J/K/mol
270.54 K, Crystal 1	–	123.7 J/K/mol
274.01 K, Crystal 1	–	123.6 J/K/mol
276.98 K, Crystal 1	–	124 J/K/mol
280 K, Crystal 1	227.1	123.8 J/K/mol
280.45 K, Crystal 1	–	123.7 J/K/mol
284.65 K, Crystal 1	–	124 J/K/mol
289.2 K, Crystal 1	–	123.9 J/K/mol
290 K, Crystal 1	231.4	123.9 J/K/mol
293.71 K, Crystal 1	–	123.6 J/K/mol
298.15 K, Crystal 1	234.8	123.9 J/K/mol
298.18 K, Crystal 1	–	123.9 J/K/mol
300 K, Crystal 1	235.6	123.9 J/K/mol
302 K, Crystal 1	236.4	123.9 J/K/mol
302.6 K, Crystal 1	–	124.2 J/K/mol

[1]
Details	Triple point temperature [K]
Crystal 2	228.4
Crystal 3	6.03

Source: the NIST ThermoML archive (doi:10.1016/j.jct.2017.10.013)
